According to patent publication EP0658342A1, “Antineoplastic pharmaceutical composition containing a fumagillol derivative” (Takeda Chemical Industries, Ltd., priority 1993, dated 1995):

Tested on: Hormone-independent human prostatic cancer PC-3 strain cells
Assay: Tumor growth inhibitory activity against subcutaneously transplanted PC-3 tumors in Balb/c nu/nu mice (Experiments 1 and 2)
Type: in vivo
Details: one-week intervals from 17th day; for Tumor size gain (mm³) mean±SD: Experiment 1, s.c. PC-3, Compound A 100 mg/kg s.c. (maltosyl-β-cyclodextrin inclusion compound), gain over size at first administration; for Tumor size ratio (T/C %): treated vs control group; for Tumor size gain (mm³) means±SD: Experiment 2, s.c. PC-3, Compound A 100 mg/kg s.c. (maltosyl-β-cyclodextrin inclusion compound)
Experimental: Hormone-independent human prostatic cancer PC-3 strain cells (hereinafter abbreviated as PC-3 cells) subcultured in vitro using a petri dish for tissue culture were removed from the dish wall by using 0.25% trypsin. The cells thus obtained were rinsed with Ham F-12K medium containing 10% serum and suspended in PBS (phosphate-buffered saline) so that the concentration of the cells became 3 x 10⁷/ml, and 100 µl of the resulting suspension was transplanted to the central part of the right side of the abdomens of Balb/c nu/nu mice (9 weeks old, male) with an injection syringe (25G needle). The tumor size was determined on the 17th day. The mice were divided into groups so that the mean tumor size of each groups was 96 to 97 mm³. Then administration of the drug prepared by the following method was started. The tumor size was determined with a caliper in terms of the major axis (a) and minor axis (b), and calculated from the following formula: 0.5 x a x b².
A 5% glucose solution was added to an inclusion compound of Compound A and maltosyl-β-cyclodextrin obtained in Reference Example 1 to adjust a dosage volume to 10 µl/g body weight of each mouse, and the resulting solution was administered to dorsal subcutaneous parts of mice.
The injection Randa (trade name, manufactured by Nippon Kayaku K.K., Japan) was used as cisplatin, dissolved in saline, adjusted to a dosage volume of 10 µl/g body weight of each mouse, and intraperitoneally administered to mice.
In the case of administration of Compound A alone and cisplatin alone, the first administration was carried out on the 17th day after the transplantation, and thereafter administrations were carried out at one-week intervals. In the case of concomitant administration of Compound A and cisplatin, cisplatin was administered on the 17th day after the transplantation, and Compound A was administered on the 21th day after the transplantation. Thereafter, each drug was administered at one-week intervals.
Tumor growth inhibitory activity was evaluated on the 49th day after the transplantation as follows. Each tumor size was determined on the 49th day, the tumor size on the day of the first administration was subtracted from the size on the 49th day, and the ratio (T/C%) of the tumor size of the drug administration group (T) to that of the control group (C) was calculated. The dose of the drug is indicated in terms of the weight of the drug (mg/kg body weight) per administration.
Mice bearing PC-3 cancer cells were prepared according to the same manner as that in Experiment 1. The tumor size was determined on the 17th day after the transplantation. Mice were divided into groups so that the average tumor size of each group was 108 to 109 mm³. Then drug administration was started. Preparation of the drug, determination of the tumor size, evaluation of tumor growth inhibitory activity, etc., were carried out according to the methods of Experiment 1.
In the case of administration of Compound A alone and cisplatin alone, the first administration was carried out on the 17th day after the transplantation, and thereafter administrations were carried out at one-week intervals.
The following three combinations of the drugs were administered. Cisplatin and Compound A were administered on the 17th day and 21th day after the transplantation, respectively, and thereafter each drug was administered at one-week intervals. These administrations are hereinafter referred to as Combination 1. Compound A and cisplatin were administered on the 17th day and 21th day after the transplantation, respectively, and thereafter each drug was administered at one-week intervals. These administrations are hereinafter referred to as Combination 2. Compound A and cisplatin were administered simultaneously on the 17th day after the transplantation, and thereafter each drug was administered at on-week intervals. These administrations are hereinafter referred to as Combination 3. […]

[1] = cisplatin 4 mg/kg i.p., evaluated 49th day
[2] = Experiment 1, s.c. PC-3, Compound A 100 mg/kg s.c., cisplatin 4 mg/kg i.p., evaluated 49th day
[3] = cisplatin 5 mg/kg i.p., evaluated 42th day
[4] = Experiment 2, s.c. PC-3, Compound A 100 mg/kg s.c., cisplatin 5 mg/kg i.p., evaluated 42th day

Row | Molecule | Tumor size gain (mm³) mean±SD [1] | Tumor size ratio (T/C %) [2] | Tumor size gain (mm³) means±SD [3] | Tumor size ratio (T/C %) [4]
1 | 6-O-(N-chloroacetylcarbamoyl)fumagillol [Compound A] | 591±242 mm³ | 49% | 400±126 mm³ | 30%
2 | N.N.[Cl][Pt][Cl] [Cisplatin, cisplatin] | 230±182 mm³ | 19% | 345±163 mm³ | 26%
